Key:
Aphis craccivora = assay: Efficacy test against Aphis craccivora (spray on cowpea plants); assay type: in vivo; conditions: 125 ppm sprayed on cowpea plants infested with nymphs; 25° C., humidity 60%; 4 days after spraying
Method: The insecticidal rate was calculated by the following formula. Insecticidal rate (%)=(number of dead insects/number of tested insects)×100 Cowpea plants were raised in No. 3 pots, and nymphs of Aphis craccivora were inoculated on the primary leaves. The emulsion (1) was diluted with water so that the concentration of the compound of the present invention was 125 ppm, and the diluent was sprayed on the cowpea plants infested with nymphs of Aphis craccivora. The cowpea plants were placed in a thermostatic chamber with a temperature of 25° C. and a humidity of 60%. […] The test was repeated twice.

Plutella xylostella = assay: Efficacy test against Plutella xylostella (cabbage leaf immersion); assay type: in vivo; conditions: 125 ppm, cabbage leaf immersed 30 seconds; second instar larvae; 25° C., humidity 60%; 3 days after insect release
Method: The insecticidal rate was calculated by the following formula. Insecticidal rate (%)=(number of dead insects/number of tested insects)×100 The emulsion (1) was diluted with water so that the concentration of the compound of the present invention was 125 ppm. A cabbage leaf was immersed in the diluent for 30 seconds. This cabbage leaf was placed in a petri dish. Five second instar larvae of Plutella xylostella were released therein. The petri dish was placed in a thermostatic chamber with a temperature of 25° C. and a humidity of 60%. […] The test was repeated twice.

SMILES	melting point	insecticidal rate (Aphis craccivora)	insecticidal rate (Plutella xylostella)
Br.CCS(=O)(=O)c1cnc(-c2ncccn2)nc1-c1ccc(O)cn1	234 to 239 °C		
CCS(=O)(=O)c1cnc(-c2ncccn2)nc1-c1ccc(OCC(F)(F)F)nn1 [2-8]	209 to 210 °C		
CCS(=O)(=O)c1cnc(O)cc1-c1ccc(OCC(F)(F)C(F)(F)F)cn1 [2-11]	212 to 214 °C		
CCS(=O)(=O)c1cnc(NC(=O)C(F)(F)F)nc1-c1ccc(OCC(F)(F)C(F)(F)C(F)(F)F)cn1 [1-80]		≥ 80%	≥ 80%
CCS(=O)(=O)c1cnc(N)nc1-c1ccc(C(F)(F)C(F)(F)C(F)(F)C(F)(F)F)nn1	186 to 188 °C		
CCS(=O)(=O)c1cnc(-c2ncn(C)n2)nc1-c1ccc(C(F)(F)C(F)(F)C(F)(F)C(F)(F)F)nn1	182 to 185 °C		
